Source: the NIST ThermoML archive (doi:10.1021/je0342320)
± gives the expanded uncertainty stated by the source.

Conditions: Liquid, Vibrating tube method

CCCCCCCCCC [decane] gave a mass density (283.15 K, 100 kPa) of 737.4 ± 0.44 kg/m3, a mass density (283.15 K, 5000 kPa) of 740.81 ± 0.45 kg/m3 and a mass density (283.15 K, 10000 kPa) of 744.17 ± 0.47 kg/m3. It also gave a mass density (283.15 K, 15000 kPa) of 747.39 ± 0.49 kg/m3, a mass density (283.15 K, 20000 kPa) of 750.49 ± 0.52 kg/m3 and a mass density (283.15 K, 25000 kPa) of 753.52 ± 0.54 kg/m3. The mass density (283.15 K, 30000 kPa) was 756.43 ± 0.57 kg/m3, the mass density (283.15 K, 35000 kPa) was 759.27 ± 0.59 kg/m3 and the mass density (283.15 K, 40000 kPa) was 762.02 ± 0.62 kg/m3. The mass density (288.15 K, 100 kPa) was 733.69 ± 0.44 kg/m3, the mass density (288.15 K, 5000 kPa) was 737.19 ± 0.45 kg/m3 and the mass density (288.15 K, 10000 kPa) was 740.63 ± 0.47 kg/m3. It also gave a mass density (288.15 K, 15000 kPa) of 743.93 ± 0.49 kg/m3, a mass density (288.15 K, 20000 kPa) of 747.14 ± 0.52 kg/m3 and a mass density (288.15 K, 25000 kPa) of 750.22 ± 0.54 kg/m3. For the same compound, the mass density (288.15 K, 30000 kPa) was 753.19 ± 0.57 kg/m3, the mass density (288.15 K, 35000 kPa) was 756.11 ± 0.6 kg/m3 and the mass density (288.15 K, 40000 kPa) was 758.92 ± 0.62 kg/m3. For the same compound, the mass density (293.15 K, 100 kPa) was 729.94 ± 0.44 kg/m3, the mass density (293.15 K, 5000 kPa) was 733.53 ± 0.45 kg/m3 and the mass density (293.15 K, 10000 kPa) was 737.08 ± 0.47 kg/m3. It also gave a mass density (293.15 K, 15000 kPa) of 740.5 ± 0.5 kg/m3, a mass density (293.15 K, 20000 kPa) of 743.76 ± 0.52 kg/m3 and a mass density (293.15 K, 25000 kPa) of 746.92 ± 0.55 kg/m3. The mass density (293.15 K, 30000 kPa) was 749.98 ± 0.57 kg/m3, the mass density (293.15 K, 35000 kPa) was 752.94 ± 0.6 kg/m3 and the mass density (293.15 K, 40000 kPa) was 755.79 ± 0.63 kg/m3. For the same compound, the mass density (298.15 K, 100 kPa) was 726.19 ± 0.44 kg/m3, the mass density (298.15 K, 5000 kPa) was 729.88 ± 0.45 kg/m3 and the mass density (298.15 K, 10000 kPa) was 733.52 ± 0.47 kg/m3. It also gave a mass density (298.15 K, 15000 kPa) of 737 ± 0.5 kg/m3, a mass density (298.15 K, 20000 kPa) of 740.37 ± 0.52 kg/m3 and a mass density (298.15 K, 25000 kPa) of 743.6 ± 0.55 kg/m3. The mass density (298.15 K, 30000 kPa) was 746.72 ± 0.57 kg/m3, the mass density (298.15 K, 35000 kPa) was 749.72 ± 0.6 kg/m3 and the mass density (298.15 K, 40000 kPa) was 752.67 ± 0.63 kg/m3. For the same compound, the mass density (303.15 K, 100 kPa) was 722.46 ± 0.44 kg/m3, the mass density (303.15 K, 5000 kPa) was 726.23 ± 0.45 kg/m3 and the mass density (303.15 K, 10000 kPa) was 729.98 ± 0.47 kg/m3. It also gave a mass density (303.15 K, 15000 kPa) of 733.55 ± 0.5 kg/m3, a mass density (303.15 K, 20000 kPa) of 736.98 ± 0.52 kg/m3 and a mass density (303.15 K, 25000 kPa) of 740.29 ± 0.55 kg/m3. The mass density (303.15 K, 30000 kPa) was 743.46 ± 0.58 kg/m3, the mass density (303.15 K, 35000 kPa) was 746.54 ± 0.61 kg/m3 and the mass density (303.15 K, 40000 kPa) was 749.5 ± 0.64 kg/m3. For the same compound, the mass density (308.15 K, 100 kPa) was 718.65 ± 0.44 kg/m3, the mass density (308.15 K, 5000 kPa) was 722.52 ± 0.45 kg/m3 and the mass density (308.15 K, 10000 kPa) was 726.36 ± 0.47 kg/m3. It also gave a mass density (308.15 K, 15000 kPa) of 730.01 ± 0.5 kg/m3, a mass density (308.15 K, 20000 kPa) of 733.55 ± 0.52 kg/m3 and a mass density (308.15 K, 25000 kPa) of 737.01 ± 0.55 kg/m3. It also gave a mass density (308.15 K, 30000 kPa) of 740.13 ± 0.58 kg/m3, a mass density (308.15 K, 35000 kPa) of 743.26 ± 0.61 kg/m3 and a mass density (308.15 K, 40000 kPa) of 746.32 ± 0.64 kg/m3. It also gave a mass density (313.15 K, 100 kPa) of 714.79 ± 0.44 kg/m3, a mass density (313.15 K, 5000 kPa) of 718.83 ± 0.45 kg/m3 and a mass density (313.15 K, 10000 kPa) of 722.76 ± 0.47 kg/m3. For the same compound, the mass density (313.15 K, 15000 kPa) was 726.52 ± 0.5 kg/m3, the mass density (313.15 K, 20000 kPa) was 730.14 ± 0.53 kg/m3 and the mass density (313.15 K, 25000 kPa) was 733.61 ± 0.55 kg/m3. It also gave a mass density (313.15 K, 30000 kPa) of 736.95 ± 0.58 kg/m3, a mass density (313.15 K, 35000 kPa) of 740.17 ± 0.61 kg/m3 and a mass density (313.15 K, 40000 kPa) of 743.25 ± 0.64 kg/m3. It also gave a mass density (318.15 K, 100 kPa) of 710.99 ± 0.44 kg/m3, a mass density (318.15 K, 5000 kPa) of 715.08 ± 0.45 kg/m3 and a mass density (318.15 K, 10000 kPa) of 719.13 ± 0.48 kg/m3. The mass density (318.15 K, 15000 kPa) was 722.99 ± 0.5 kg/m3, the mass density (318.15 K, 20000 kPa) was 726.69 ± 0.53 kg/m3 and the mass density (318.15 K, 25000 kPa) was 730.22 ± 0.55 kg/m3. For the same compound, the mass density (318.15 K, 30000 kPa) was 733.65 ± 0.58 kg/m3, the mass density (318.15 K, 35000 kPa) was 736.93 ± 0.61 kg/m3 and the mass density (318.15 K, 40000 kPa) was 740.05 ± 0.65 kg/m3. It also gave a mass density (323.15 K, 100 kPa) of 707.17 ± 0.43 kg/m3, a mass density (323.15 K, 5000 kPa) of 711.4 ± 0.45 kg/m3 and a mass density (323.15 K, 10000 kPa) of 715.55 ± 0.48 kg/m3. It also gave a mass density (323.15 K, 15000 kPa) of 719.49 ± 0.5 kg/m3, a mass density (323.15 K, 20000 kPa) of 723.28 ± 0.53 kg/m3 and a mass density (323.15 K, 25000 kPa) of 726.9 ± 0.56 kg/m3. For the same compound, the mass density (323.15 K, 30000 kPa) was 730.37 ± 0.59 kg/m3, the mass density (323.15 K, 35000 kPa) was 733.71 ± 0.62 kg/m3 and the mass density (323.15 K, 40000 kPa) was 736.93 ± 0.65 kg/m3. For the same compound, the mass density (328.15 K, 100 kPa) was 703.3 ± 0.43 kg/m3, the mass density (328.15 K, 5000 kPa) was 707.67 ± 0.45 kg/m3 and the mass density (328.15 K, 10000 kPa) was 711.97 ± 0.48 kg/m3. The mass density (328.15 K, 15000 kPa) was 716.03 ± 0.5 kg/m3, the mass density (328.15 K, 20000 kPa) was 719.87 ± 0.53 kg/m3 and the mass density (328.15 K, 25000 kPa) was 723.57 ± 0.56 kg/m3. For the same compound, the mass density (328.15 K, 30000 kPa) was 727.1 ± 0.59 kg/m3, the mass density (328.15 K, 35000 kPa) was 730.51 ± 0.62 kg/m3 and the mass density (328.15 K, 40000 kPa) was 733.79 ± 0.65 kg/m3.
